Key:
[1] = SPANC reaction kinetics with BCN—OH by UV/Vis absorption spectroscopy; assay type: physicochemical; conditions: for Second-order rate constants (k2): reaction with BCN—OH in MeOH at 298 K
Procedure: The reactivity of the iridium(III) and ruthenium(II) pyridyl complexes toward a strained alkyne derivative BCN—OH in MeOH at 298 K was studied. The second-order rate constants (k2) of the strain-promoted alkyne-nitrone cycloaddition (SPANC) reaction of complexes 1a-5b are shown in Tables 3 and 4, respectively. The k2 values of the iridium(III) complexes 1a, 2a and 3a and the ruthenium(II) complexes 1b, 2b, 3b, 4b, and 5b were determined to be 0.116-0.238 and 0.078-3.06 M^−1 s^−1, respectively, which are about 1.95-76.5 times that of the free ligand bpy-nitrone-Me (k2=0.040 M^−1 s^−1). This is attributed to the electron-withdrawing effects of the positively-charged metal centers. […] The accelerated reaction kinetics is assumed to originate from the presence of the more electron-withdrawing phenyl ring at the N-position of the nitrone moiety. Thus, the accelerated reaction kinetics render complexes 1a-5b highly advantageous bioorthogonal probes for biomolecules modified with a strained alkyne moiety.
More specifically, the SPANC reaction kinetics of complexes 1a 5b was studied by UV/Ms absorption spectroscopy. For the ligand bpy-nitrone-Me and the iridium(III) complexes 1a-3a, the k2 values were measured under pseudo first order conditions with a 25- to 100-fold excess of BCN—OH in MeOH at 298 K. The reaction process was followed by monitoring the exponential decay of the absorbance at 306-342 nm upon addition of BCN—OH. The final concentrations of the nitrone compounds were 10 μM and those of BCN—OH ranged from 0.25 to 1.0 mM. For the ruthenium(II) complexes 1b-5b, the k2 values were determined under pseudo first order conditions with a 50- to 200-fold excess of BCN—OH in MeOH at 298 K. The reaction process was monitored by following the exponential decay of the absorbance at 329 nm. The final concentrations of the complexes were 10 μM and those of BCN—OH ranged from 0.5 to 2.0 mM. The data were fitted to a single-exponential equation to give the observed rate constants (kobs), which were plotted against the concentrations of BCN—OH to obtain the k2 from the slope of the plots.

[2] = target: T1, unmodified BSA (Bos taurus, UniProt P02769); test: Emission enhancement with unmodified BSA (negative control); assay type: biochemical, Bovine; conditions: complex 10 μM, protein 3.78 μM, aerated potassium phosphate buffer (50 mM, pH 7.4)/DMSO (99:1, v/v), 298 K
T1 construct: purchased Calbiochem

[3] = test system: HeLa cells; assay type: cell-based; conditions: complex 40 μM; for Percentage of survival: 37° C., 6 h; for Cell viability with BCN-C10 pretreatment: BCN-C10 pretreatment (200 μM, 1 h)
Description: The results particularly highlight the potential of the luminogenic transition metal-based polypyridyl complexes of the present invention for bioorthogonal labeling. […] Importantly, although the cellular uptake of complex 2b was substantially higher, it was much less cytotoxic than complex 4b toward the pretreated cells. […] The results also highlight the potential therapeutic use of intracellular bioorthogonal coupling reactions in activating the cytotoxicity of metallo drugs.
For determining the cytotoxicity of complexes 1 b 5b, HeLa cells were seeded in a 96-well flat-bottomed microplate (about 10,000 cells well^−1) in growth medium (100 μL) and incubated at 37° C. under a 5% CO2 atmosphere for 24 h. The cells were then incubated in either blank medium or growth medium/DMSO (99:1, v/v) (100 μL) containing BCN-C10 (200 μM) in the dark at 37° C. under a 5% CO2 atmosphere for 1 h. The medium was then removed, the cell layer was washed with PBS, and further incubated in growth medium/DMSO (99:1, v/v) (100 μL) containing the ruthenium(II) complexes (40 μM) in the dark at 37° C. under a 5% CO2 atmosphere for 6, 12, or 24 h. Wells containing untreated cells were used as blank control. The microplate was incubated at 37° C. under a 5% CO2 atmosphere for another 4 h. The growth medium was then removed, and DMSO (200 μL) was added to each well. The microplate was further incubated for 15 min. The absorbance of the solutions at 570 nm was measured with a SPECTRAmax 340 microplate reader.

T1 sequence (P02769 25-607): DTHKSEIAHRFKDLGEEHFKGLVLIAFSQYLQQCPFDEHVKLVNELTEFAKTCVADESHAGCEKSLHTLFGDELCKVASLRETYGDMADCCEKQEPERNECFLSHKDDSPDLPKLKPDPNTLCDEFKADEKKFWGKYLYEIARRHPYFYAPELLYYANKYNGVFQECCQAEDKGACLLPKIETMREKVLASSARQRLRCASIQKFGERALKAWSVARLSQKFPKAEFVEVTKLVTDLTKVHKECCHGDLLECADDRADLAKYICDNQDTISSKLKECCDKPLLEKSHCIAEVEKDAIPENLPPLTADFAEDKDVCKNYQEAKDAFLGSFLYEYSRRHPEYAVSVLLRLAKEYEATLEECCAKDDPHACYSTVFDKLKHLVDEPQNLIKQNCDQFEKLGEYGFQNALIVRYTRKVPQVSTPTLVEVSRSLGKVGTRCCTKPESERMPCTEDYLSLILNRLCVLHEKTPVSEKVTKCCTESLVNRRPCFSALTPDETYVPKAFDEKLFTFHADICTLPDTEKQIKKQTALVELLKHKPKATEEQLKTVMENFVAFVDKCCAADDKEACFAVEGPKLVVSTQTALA

**Q.** For Cc1ccnc(-c2cc(/C=[N+](/C)[O-])ccn2)c1.F[P-](F)(F)(F)(F)F.F[P-](F)(F)(F)(F)F.[Ru+2].c1ccc(-c2ccccn2)nc1.c1ccc(-c2ccccn2)nc1 [Complex 1b], which “Second-order rate constants (k2)” value [1] is on record?
**A.** 0.084 ± 0.005 M⁻¹ s⁻¹

**Q.** What about the “I/Io BSA” value [2] of the same compound?
**A.** 1.1

**Q.** And the Percentage of survival [3]?
**A.** 91.37 ± 5.73%

**Q.** Which “Second-order rate constants (k2)” value [1] does the source give for CCCCNC(=O)c1ccnc(-c2cc(C(=O)NCCCC)ccn2)c1.CCCCNC(=O)c1ccnc(-c2cc(C(=O)NCCCC)ccn2)c1.Cc1ccnc(-c2cc(/C=[N+](/C)[O-])ccn2)c1.F[P-](F)(F)(F)(F)F.F[P-](F)(F)(F)(F)F.[Ru+2] [Complex 2b] here?
**A.** 0.086 ± 0.005 M⁻¹ s⁻¹

**Q.** And the “I/Io BSA” value [2]?
**A.** 1.1

**Q.** And the “Cell viability with BCN-C10 pretreatment” value [3]?
**A.** maintained good biocompatibility

**Q.** And the Percentage of survival [3]?
**A.** 94.83 ± 16.20%

**Q.** Which “k2 relative to those of the N-methyl nitrone complexes 1b, 2b, 3b and 4b” value ([1]; BCN—OH in MeOH at 298 K) does the source give for Cc1ccnc(-c2cc(/C=[N+](\[O-])c3ccccc3)ccn2)c1.F[P-](F)(F)(F)(F)F.F[P-](F)(F)(F)(F)F.[Ru+2].c1ccc(-c2ccccn2)nc1.c1ccc(-c2ccccn2)nc1 [Complex 5b] here?
**A.** at least 36 fold

**Q.** And the “I/Io BSA” value [2]?
**A.** 1.1

**Q.** And the “Cell viability with BCN-C10 pretreatment” value [3]?
**A.** maintained good biocompatibility

**Q.** And the Percentage of survival [3]?
**A.** 92.78 ± 8.54%

Reference: patent publication US10759994B2, “Luminogenic transition metal-based pyridyl complex and its use” (City University of Hong Kong, priority 2016, dated 2020)
